According to paper PMC11645656, “MRGPRX4 mediates phospho-drug associated pruritus in a humanized mouse model” (Science translational medicine, 2024):
Several values for one entry are separate records, joined by “and”; a condition that tells them apart may be missing. Equal values may be shown once. Read-outs that look alike come from different tables or passages of the source.

Experiments:
[1] = target: T1, MRGPRX4 (S83) (Homo sapiens, UniProt Q96LA9, L83S); experiment: EC50 determination, intracellular calcium mobilization in MRGPRX4 stably expressed HEK293 cells (FLIPR Calcium 5, Flexstation-3); format: cell-based; design: Fig. 1D dose-response, calcium mobilization response (individual replicate) / calcium mobilization response (Fig. 1D dose-response raw data): unit not given here
T1 construct: expressed in transfected cells
Summary of the method: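 EC50 came from a four-parameter logistic fit to averaged triplicate responses, each response being maximum post-stimulation signal less baseline. Intracellular calcium was monitored with Calcium 5 dye in HBSS with 20 mM HEPES, pH 7.4, after 1 h dye loading at 37 °C, using stably transfected HEK293 cells and parental controls.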

[2] = test system: NP2-X4+ mice (MRGPRX4 in Mrgpra3+ NP2 sensory neurons); experiment: Itch behavioral study (scratching bouts after subcutaneous nape injection) in NP2-X4+ mice; format: in vivo, mouse
[3] = test system: NP2-WT mice; experiment: Itch behavioral study (scratching bouts after subcutaneous nape injection) in littermate control NP2-WT mice; format: in vivo; conditions: 30 min after injection of 50 μl 10 mM into the nape, each cell one mouse
From the text: Fig. 2. Phosphate monoester prodrugs induce itch in NP2-MRGPRX4+ mice through activating NP2 primary sensory neurons. (A) Mating strategy to generate NP2-X4+ mice. (B) In situ hybridization showing MRGPRX4 transcripts (magenta) in NP2-X4+ DRG as indicated by arrowheads (left) but not in littermate control NP2-WT (right). NP2 subpopulation accounts for 5% of total DRG neurons. DAPI, blue. Scale bar, 50 μm. […] . Data are expressed as mean ± SEM. *p< 0.05, **p< 0.01 and ***p< 0.001 by two-tailed unpaired Student’s t-test. ns = no statistical significance observed. (D and E) Traces of average (top, depicted as mean ± 95% confidence interval) and individual (bottom, reflected by the heatmap) calcium activity, measured by fluorescence intensity normalized to the baseline intensity (FT/F0) over time of NP2-X4+ (D) and NP2-WT (E) DRG neurons labelled with GCaMP6s (n = 110–150 neurons pooled from 3–7 independent culture vessels from 2–4 mice in each condition). 10 μM phospho-drugs and 1 mM CQ were added as indicated by the arrowheads. Neurons with FT/F0 > 1.5 after compound application were considered a positive responder. NP2-X4+: NP2-MRGPRX4+; DRG, dorsal root ganglia; CQ: chloroquine.
. All the animals used were heterozygous unless otherwise specified. NP2-X4+ and NP2-WT littermates were generated by crossing Mrgpra3-Cre to Rosa26-lsl-MRGPRX4 as detailed previously ([15]). NP2-X4+ mice were further crossed to homozygous Rosa26-lsl-GCaMP6s to obtain NP2-WT/GCaMP6s and NP2-X4+/GCaMP6s animals. A detailed mating strategy is illustrated in fig. S5. Pirt-Cre-GCaMP6s animals were acquired by crossing Pirt-Cre to homozygous Rosa26-lsl-GCaMP6s. Pirt-Cre animals were generated through homologous recombination as indicated previously ([37]). Rosa26-lsl-GCaMP6s mouse line was provided by Dr. Dwight Bergles’ lab at the Johns Hopkins School of Medicine.

[4] = target: MRGPRX4 WT (S83) (Homo sapiens, UniProt Q96LA9, L83S); experiment: Calcium mobilization assay (FLIPR), WT (S83) MRGPRX4 transiently expressed in HEK293T cells; format: cell-based; design: expressed in transfected cells; host or cells: HEK293T, transient; conditions: for fig. S8 response (normalized), concentration-response: WT, single replicate; for Potency at S83- vs L83-MRGPRX4: calcium mobilization, compared with S83L (A17)
From the text: (§1) Fig. 4. […] Hydrogen bond is shown as cyan dashed lines. […] Data are from three independent experiments, performed in triplicate. (E) pEC50 plots of various agonists toward S83- and L83-MRGPRX4 through calcium mobilization assay. […] Each data point represents an independent experiment, performed in triplicate. The extra sum-of-square F test was used to examine the difference in EC50 values. One-sided t-test was used for nateglinide. *p< 0.05, **p< 0.01 and ***p< 0.001. ns = no statistical significance. Both (D) and (E) are reported as the mean ± SEM. N.D.= no detectable response ≤ 100 μM.
(§2) HEK293 cells and MRGPRX4 stably expressed HEK293 cells were seeded in 100 μl culture media on 96-well plates at a density of 40,000 cells per well and incubated overnight. The next day, the media were replaced with a dye-loading solution from the FLIPR Calcium 5 assay kit (Molecular Devices), diluted in Hank's Balanced Salt Solution (HBSS) with 20 mM HEPES, pH 7.4. After 1 h of incubation at 37°C, cells were allowed to recover for 10 min in the dark at room temperature prior to performing intracellular calcium mobilization assay in a Flexstation-3 instrument with SoftMax®Pro 7.1 software (Molecular Devices). Serial concentrations of tested drugs were prepared in HBSS/HEPES solution at 3X concentration. […] Compounds were tested in triplicates and the signals were averaged. Responses were determined by subtracting the minimum signal (at the baseline before adding the drug) from the maximum signal (obtained after drug stimulation). Four-parameter logistic (4PL) curve fit was used to plot the dose-response curves. […] Both dose-response curve fitting and EC50s calculation are computed with GraphPad Prism software (version: 6.o or above).
(§3) To generate murine Mrgprs expressing cells, HEK293T cells (ATCC) were seeded on poly-D-lysine coated 96 well plate at 25,000 cells per well one day prior to transfection. HEK293T cells were transiently co-transfected with the mammalian expression plasmids carrying cDNA encoding the murine Mrgpr genes and plasmid inserted with cDNA encoding murine α-subunit of the heterotrimeric G15 protein (Gα15) in triplicates using Lipofectamine LTX reagents (Thermo Scientific). To generate WT, S83L, and alanine mutant MRGPRX4-expressing cells, HEK293T cells were seeded on poly-D-lysine coated 384 well plate at 12,000 cells per well one day prior to transfection. Mammalian expression plasmids pLX304 (vector from Addgene) carrying different MRGPRX4 coding sequences were transiently transfected into HEK293T cells in triplicates with Lipofectamine LTX reagents (Thermo Scientific). Intracellular calcium mobilization assays were performed after one day of transfection. Murine Mrgprs tested include Mrgpra1, Mrgpra2a, Mrgpra2b, Mrgpra3, Mrgpra4, Mrgpra6, Mrgpra9, Mrgpra10, Mrgpra11, Mrgpra12, Mrgpra14, Mrgprb5, Mrgprb6, Mrgprb10, Mrgprb11, and Mrgprc11. WT and mutant MRGPRX4 constructs tested include WT, S83L, R82A, R86A, R95A, W158A, Y250A, and Y254A.

[5] = target: MRGPRX4 S83L (L83) (Homo sapiens, UniProt Q96LA9); experiment: Calcium mobilization assay (FLIPR), S83L MRGPRX4 transiently expressed in HEK293T cells; format: cell-based; design: expressed in transfected cells; host or cells: HEK293T, transient; conditions: Fig. 4E, unit not in the head, taken from Concentration (M) of the sheet and pEC50 [M] of Fig. 4E, read-out: EC50s (each well represents individual experiment)
From the text: as §1, §2, §3

Chain of MRGPRX4 S83L (L83) (Q96LA9 whole entry, stated change not applied): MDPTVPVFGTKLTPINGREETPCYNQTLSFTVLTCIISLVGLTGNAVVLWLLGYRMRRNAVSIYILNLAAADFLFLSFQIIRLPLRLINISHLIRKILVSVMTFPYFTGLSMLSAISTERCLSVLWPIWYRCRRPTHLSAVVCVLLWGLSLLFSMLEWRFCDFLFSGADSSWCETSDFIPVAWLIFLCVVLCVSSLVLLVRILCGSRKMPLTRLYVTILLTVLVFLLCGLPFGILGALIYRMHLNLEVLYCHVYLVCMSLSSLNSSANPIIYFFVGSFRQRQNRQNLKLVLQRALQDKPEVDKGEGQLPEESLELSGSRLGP
Chain of MRGPRX4 WT (S83) (Q96LA9 whole entry L83S): as the sequence (Q96LA9 whole entry, stated change not applied) above, with L83S counted along it
T1 sequence (Q96LA9 whole entry L83S): as the sequence (Q96LA9 whole entry, stated change not applied) above, with L83S counted along it

In the case of `CC(=O)OCC(=O)[C@@]1(O)[C@H](C)C[C@H]2[C@@H]3CCC4=CC(=O)C=C[C@]4(C)[C@@]3(F)[C@@H](O)C[C@@]21C` [Dexamethasone acetate], the “Fig. 1D dose-response, calcium mobilization response (individual replicate)” value ([1]; Concentration 9.76563e-7 M) is reported as -48.502 and -46.356 and -48.988 and -43.676 and -48.158 and -43.385 and -85.123 and -4.652 and -42.229, the “Fig. 1D dose-response, calcium mobilization response (individual replicate)” value ([1]; Concentration 1.95313e-6 M) is reported as -22.164 and -36.691 and -35.570 and -37.729 and -34.474 and -34.794 and -19.078 and -53.999 and -20.889 and the “Fig. 1D dose-response, calcium mobilization response (individual replicate)” value ([1]; Concentration 3.90625e-6 M) is reported as -39.055 and -53.135 and -70.767 and -48.544 and -36.360 and -36.045 and -91.099 and -38.430 and -1.751. For the same compound, the “Fig. 1D dose-response, calcium mobilization response (individual replicate)” value ([1]; Concentration 7.8125e-6 M) was -33.331 and -71.560 and -49.660 and -45.756 and -42.005 and -31.885 and -29.162 and -70.876 and -31.653, the “Fig. 1D dose-response, calcium mobilization response (individual replicate)” value ([1]; Concentration 1.5625e-5 M) was -37.387 and -60.340 and -52.439 and -33.449 and -38.008 and -34.728 and -69.819 and -42.708 and -12.221 and the “Fig. 1D dose-response, calcium mobilization response (individual replicate)” value ([1]; Concentration 3.125e-5 M) was -47.434 and -56.549 and -63.778 and -43.258 and -41.889 and -38.256 and -62.786 and -46.904 and -33.452. The “Fig. 1D dose-response, calcium mobilization response (individual replicate)” value ([1]; Concentration 6.25e-5 M) was -61.858 and -50.883 and -76.723 and -47.363 and -44.877 and -37.522 and -10.190 and -37.194 and -110.631, the “Fig. 1D dose-response, calcium mobilization response (individual replicate)” value ([1]; Concentration 0.00025 M) was -64.043 and -50.303 and -56.027 and -44.560 and -42.575 and -45.473 and -89.145 and -53.447 and -8.636 and the “Fig. 1D dose-response, calcium mobilization response (individual replicate)” value ([1]; Concentration 0.0005 M) was -48.359 and -6.029 and -35.851 and -38.822 and -45.234 and -19.021 and -30.402 and -28.831 and -36.978. The “Fig. 1D dose-response, calcium mobilization response (individual replicate)” value ([1]; Concentration 0.001 M) was -37.786 and -38.347 and -50.572 and -37.033 and -22.575 and -15.877 and -9.453 and -18.673 and -62.758, the “Itch in both NP2-X4+ and littermate WT controls” value ([2]; 50 μl 10 mM nape injection) was “slightly elevated itch” and the “Scratching / itch behavior, NP2-X4+ mice vs WT littermates” value ([2]; 50 μl 10 mM nape injection, 30 min) was “no differences in itch behavior were detected”. The “Scratching bouts of individual animals” value ([2]; NP2-X4+, 30 min after injection of 50 μl 10 mM into the nape, each cell one mouse) was 0 and 26 and 59 and 22 and 2 and 3 and 9 (2×) and 20 and the “Scratching bouts of individual animals” value [3] was 20 and 31 and 30 and 18 and 14 and 9 and 75 and 34 and 3.

`C[C@]12CC3CC(C(=O)N[C@H](Cc4ccccc4)C(=O)O)(C1)C[C@@](C)(C3)C2` [MS47134] was tested, and the EC50 ([4]; WT (S83), Fig. 4E, unit not in the head, taken from Concentration (M) of the sheet and pEC50 [M] of Fig. 4E, read-out: EC50s (each well represents individual experiment)) was 1e-05 M and 9.11e-06 M and 5.25e-06 M, the “fig. S8 response (normalized), concentration-response” value (“fig. S8 response (normalized)” below) ([4]; 188.2 pM) was 11.5885 and 10.879 and 5.439 and 5.904 and 6.997 and 13.1195 and 4.054 and the “fig. S8 response (normalized)” value ([4]; 564.5 pM) was 1.419 and 2.1285 and 14.19 and 0.656 and -3.499 and 16.1808 and 2.837 and 3.081. The “fig. S8 response (normalized)” value ([4]; 1.69351e-9 M) was 13.717 and 21.0485 and 8.041 and 7.872 and 6.341 and 14.6502 and 17.1869 and 20.1054, the “fig. S8 response (normalized)” value ([4]; 5.08053e-9 M) was 10.406 and 7.095 and 9.933 and 10.7143 and 1.312 and 11.3703 and 16.214 and 17.6733 and the “fig. S8 response (normalized)” value ([4]; 1.52416e-8 M) was 16.555 and 11.5885 and 5.439 and 11.8076 and 1.749 and 16.6181 and 8.6745 and 13.0523. For the same compound, the “fig. S8 response (normalized)” value ([4]; 4.57247e-8 M) was 20.1025 and 15.609 and 18.447 and 12.2449 and 9.84 and 19.0233 and 11.1066, the “fig. S8 response (normalized)” value ([4]; 1.37174e-7 M) was 23.177 and 26.015 and 20.1025 and 11.3703 and 12.9009 and 13.1195 and 23.7536 and the “fig. S8 response (normalized)” value ([4]; 4.11523e-7 M) was 18.92 and 25.069 and 17.2645 and 15.0875 and 10.7143 and 17.93 and 19.3758 and 16.214. For the same compound, the “fig. S8 response (normalized)” value ([4]; 1.23457e-6 M) was 24.3595 and 15.8455 and 8.041 and 11.5889 and 9.621 and 14.4315 and 14.7548 and 20.5918, the “fig. S8 response (normalized)” value ([4]; 3.7037e-6 M) was 23.8865 and 16.3185 and 10.879 and 20.3353 and 21.8659 and 19.0233 and 22.7807 and 20.3486 and the “fig. S8 response (normalized)” value ([4]; 1.11111e-5 M) was 45.6445 and 43.516 and 42.3335 and 43.5131 and 43.9504 and 44.6064 and 52.9388 and 53.9116. For the same compound, the “fig. S8 response (normalized)” value ([4]; 3.33333e-5 M) was 61.017 and 69.0579 and 61.4432 and 62.3178 and 54.6647 and 48.561 and 41.5079, the “fig. S8 response (normalized)” value ([4]; 0.0001 M) was 60.544 and 75.4434 and 62.6724 and 56.414 and 74.7813 and 68.4402 and 77.9895 and 57.3166 and the “Potency at S83- vs L83-MRGPRX4” value [4] was “the L83 allele, as previously reported, exhibited greater potency and efficacy”. The EC50 [5] was 2.33e-07 M and 2.26e-07 M and 1.83e-07 M.

For `CC(C)[C@H]1CC[C@H](C(=O)N[C@H](Cc2ccccc2)C(=O)O)CC1` [Nateglinide], the EC50 ([4]; S83-MRGPRX4, Fig. 4E, read-out: pEC50 (converted)) was > 0.0001 M, the “fig. S8 response (normalized)” value ([4]; 1.52416e-8 M) was 11.8843 and the “fig. S8 response (normalized)” value ([4]; 4.11523e-7 M) was 16.3409. The “fig. S8 response (normalized)” value ([4]; 1.23457e-6 M) was 15.4027, the “Potency at S83- vs L83-MRGPRX4” value [4] was “the L83 allele, as previously reported, exhibited greater potency and efficacy” and the EC50 [5] was 1.04e-06 M and 7.61e-07 M and 9.29e-07 M.
